Laboratory results as given in patent US20080286809A1, “Methods” (MEDICAL RESEARCH COUNCIL, priority 2005, published 2008).

Molecular target: T1, WNK1 (Homo sapiens, UniProt Q9H4A3)
T1 construct: made in house
Assay: ELISA assay for inhibitors of WNK activity: anti-phospho-SPAK-S373 detection of OSR1(D164A) phosphorylation
Type: biochemical
Conditions: non-radioactive ELISA; immobilised OSR1(D164A) substrate; anti-phospho-SPAK-S373 antibody; absorbance readout; read-out: IC50, Hypericin Inhibition of WNK1
Method: An example of a non-radioactive assay, suitable for screening of small drug-like compound libraries, has been developed using anti-phospho-SPAK antibodies to detect phosphorylation of WNK substrates SPAK or OSR1 in an ELISA format.
Anti-phospho-SPAK-S373 and anti-phospho-SPAK-T233 were anti-phospho-peptide antibodies raised in sheep for use in western blotting. They were evaluated for use in the ELISA format. Anti-phospho-SPAK-S373 was active in the ELISA with native OSR1 protein. SPAK and OSR1 are interchangeable in the assay as the amino acid sequences are very similar overall and have the same sequence flanking the phosphorylation sites. […] Wild type OSR1 had significant autophosphorylation/ATP hydrolytic activity, and could lead to depletion of substrates during the time course of the reaction.
The assay was performed in maxisorp (Nunc) 384-clear plates. OSR1(D164A), 30 ng/well, was coated overnight at 4° C. in Tris buffered saline (TBS) pH 7.4. […] Plates were read on an absorbance reader at […]. […]
The assay was tolerant to a wide range of ATP concentrations (1-1000 μM) and 1% DMSO (compound storage solvent). Compound interference by autofluorescence, quenching or absorbance is minimised as it is heterogeneous involving several wash steps. […]

T1 sequence (Q9H4A3 whole entry): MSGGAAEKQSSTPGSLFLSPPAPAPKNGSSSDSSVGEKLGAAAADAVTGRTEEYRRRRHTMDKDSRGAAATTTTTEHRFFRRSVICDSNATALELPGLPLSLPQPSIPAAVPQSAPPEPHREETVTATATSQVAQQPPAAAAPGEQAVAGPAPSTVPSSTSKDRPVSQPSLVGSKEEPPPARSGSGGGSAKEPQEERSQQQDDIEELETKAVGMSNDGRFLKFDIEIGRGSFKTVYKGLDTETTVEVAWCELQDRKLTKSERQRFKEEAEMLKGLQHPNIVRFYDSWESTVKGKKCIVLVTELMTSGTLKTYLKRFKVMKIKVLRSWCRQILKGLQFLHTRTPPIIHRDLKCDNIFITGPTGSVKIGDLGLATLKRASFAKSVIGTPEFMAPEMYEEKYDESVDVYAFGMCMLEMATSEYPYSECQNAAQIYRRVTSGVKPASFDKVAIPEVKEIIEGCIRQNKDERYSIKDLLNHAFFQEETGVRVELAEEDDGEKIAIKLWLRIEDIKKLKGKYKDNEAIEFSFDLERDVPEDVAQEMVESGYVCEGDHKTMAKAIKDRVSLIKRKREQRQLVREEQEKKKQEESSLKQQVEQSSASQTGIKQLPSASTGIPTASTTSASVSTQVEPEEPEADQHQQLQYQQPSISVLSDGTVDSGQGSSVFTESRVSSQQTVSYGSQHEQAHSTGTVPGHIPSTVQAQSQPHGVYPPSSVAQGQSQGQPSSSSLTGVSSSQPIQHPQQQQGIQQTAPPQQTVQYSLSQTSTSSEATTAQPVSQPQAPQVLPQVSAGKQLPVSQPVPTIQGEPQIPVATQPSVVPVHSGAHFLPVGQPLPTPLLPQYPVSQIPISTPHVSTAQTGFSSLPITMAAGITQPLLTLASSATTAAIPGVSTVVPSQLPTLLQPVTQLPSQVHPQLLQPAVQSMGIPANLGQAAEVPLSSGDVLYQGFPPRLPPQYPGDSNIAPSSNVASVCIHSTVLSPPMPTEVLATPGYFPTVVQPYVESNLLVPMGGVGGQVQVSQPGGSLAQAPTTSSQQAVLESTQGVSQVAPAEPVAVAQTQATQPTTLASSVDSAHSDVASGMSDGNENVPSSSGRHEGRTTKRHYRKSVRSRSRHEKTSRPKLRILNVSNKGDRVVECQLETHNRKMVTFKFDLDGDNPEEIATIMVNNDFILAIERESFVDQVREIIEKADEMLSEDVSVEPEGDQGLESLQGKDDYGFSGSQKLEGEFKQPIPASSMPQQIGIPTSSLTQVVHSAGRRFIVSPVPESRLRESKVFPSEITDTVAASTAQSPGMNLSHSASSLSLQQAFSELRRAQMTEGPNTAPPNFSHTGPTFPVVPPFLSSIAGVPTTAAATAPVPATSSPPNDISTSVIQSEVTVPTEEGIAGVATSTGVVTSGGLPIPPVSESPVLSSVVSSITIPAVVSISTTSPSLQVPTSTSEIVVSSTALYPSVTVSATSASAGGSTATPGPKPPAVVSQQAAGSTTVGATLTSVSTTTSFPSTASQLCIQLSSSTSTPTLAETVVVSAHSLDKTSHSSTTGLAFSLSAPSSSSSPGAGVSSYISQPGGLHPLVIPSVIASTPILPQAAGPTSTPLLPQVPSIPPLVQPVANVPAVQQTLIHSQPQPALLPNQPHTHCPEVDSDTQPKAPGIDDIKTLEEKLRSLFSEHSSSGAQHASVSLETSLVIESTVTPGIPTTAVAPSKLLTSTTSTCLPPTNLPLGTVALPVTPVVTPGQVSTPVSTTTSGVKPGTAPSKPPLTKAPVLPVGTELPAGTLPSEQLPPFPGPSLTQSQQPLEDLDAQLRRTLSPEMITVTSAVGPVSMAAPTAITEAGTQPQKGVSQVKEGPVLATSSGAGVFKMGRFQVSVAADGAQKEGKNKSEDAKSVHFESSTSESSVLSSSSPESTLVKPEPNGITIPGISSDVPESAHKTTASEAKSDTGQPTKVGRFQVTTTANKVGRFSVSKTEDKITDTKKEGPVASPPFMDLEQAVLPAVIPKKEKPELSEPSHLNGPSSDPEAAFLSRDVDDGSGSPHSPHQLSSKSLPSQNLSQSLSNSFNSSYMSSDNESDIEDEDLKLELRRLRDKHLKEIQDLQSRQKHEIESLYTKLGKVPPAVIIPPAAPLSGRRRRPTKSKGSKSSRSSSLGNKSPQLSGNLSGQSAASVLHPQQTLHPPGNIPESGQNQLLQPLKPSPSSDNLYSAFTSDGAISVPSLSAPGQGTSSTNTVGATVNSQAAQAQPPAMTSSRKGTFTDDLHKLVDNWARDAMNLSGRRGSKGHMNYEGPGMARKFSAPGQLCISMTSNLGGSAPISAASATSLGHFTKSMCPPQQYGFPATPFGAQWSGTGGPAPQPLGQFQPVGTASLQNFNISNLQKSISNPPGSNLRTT

Which IC50 does the source give for `Cc1cc(O)c2c(=O)c3c(O)cc(O)c4c5c(O)cc(O)c6c(=O)c7c(O)cc(C)c8c1c2c(c34)c(c78)c65` [Hypericin] here?
The IC50 was 1500 nM.
